Data on 4 compounds can be found in publication PMC10056986 (Pharmaceuticals, 2023).

Test [1] deals with influenza A virus with PA I38T substitution. The following applies: cited from earlier work.
Test [2] concerns Baloxavir-resistant influenza A/PR/8/34 (H1N1) (PA I38T). The test is classed as cell-based, Influenza A virus. The following applies: read-out: EC50 (mean ± SD).
Test [3] deals with Oseltamivir-resistant influenza virus strain A/Weiss/43 (H1N1)-4. Put plainly: microbe, parasite or virus in culture. Type of test: cell-based. The following applies: unidentified influenza virus, H1N1, MDCK, read-out: EC50 (mean ± SD).
Test [4] has as its system Oseltamivir-resistant influenza virus strain A/Weiss/43 (H1N1)-5. Put plainly: microbe, parasite or virus in culture. The test is classed as cell-based. The following applies: unidentified influenza virus, H1N1, MDCK, read-out: EC50 (mean ± SD).

Regarding `O=C1c2c(O)c(=O)ccn2N([C@@H]2c3ccccc3SCc3c2ccc(F)c3F)[C@@H]2COCCN12` [Baloxavir], in test [1], the “EC50 change due to PA I38T substitution” value is on record as 30-50 fold. The 50% effective concentration (EC50) in test [2] was 89.4 ± 11.9 nM.

On to `CCOC(=O)C1=C[C@@H](OC(CC)CC)[C@H](NC(C)=O)[C@@H](N)C1` [Oseltamivir], for which the EC50 in test [3] and in test [4] was greater than 100000 nM in each case.

Regarding `O=C(O)[C@H]1C2CCC(CC2)[C@@H]1Nc1nc(-c2c[nH]c3ncc(F)cc23)ncc1F` [VX-787, reference compound], the EC50 stood at 0.234 ± 0.094 nM in test [3], 0.216 ± 0.053 nM in test [4] and 0.434 ± 0.052 nM in test [2].

As for `O=C(O)[C@H]1C2CCC(CC2)[C@@H]1Nc1nc(-c2n[nH]c3ncc(F)cc23)nc(C2CC2)c1F` [ZSP1273], the concentration for a half-maximal effect (EC50) in test [3] was 0.014 ± 0.006 nM; in test [4], 0.017 ± 0.004 nM; in test [2], 0.028 ± 0.013 nM.

One may read the EC50 as the concentration at which the effect is half-maximal.
